The record followed here is patent US5760036A, “Aminediol protease inhibitors” (E. R. Squibb & Sons, Inc., priority 1995, dated 1998).

For one test, the target named is T1, HIV protease (Human immunodeficiency virus type 1 group M subtype B, UniProt P04585).
T1 construct: and purified protease
Put plainly: HIV Protease Assay. Format: biochemical. Particulars: pH 5.5, 10 μM inhibitor, 4% DMSO, 450 μM substrate, pH 5.5, 30 minutes at 37° C., RP-HPLC; read-out: HIV Protease % Inhibition at 10 μM. The gist of the method: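 At a single final concentration of 10 μM (4% DMSO), inhibitors were added to a 30-minute, 37° C reaction of purified enzyme with 450 μM H2N-Val-Ser-Gln-Asn-(β-naphthyl-alanine)-Pro-Val-Ile-OH at pH 5.5 (sodium acetate, BSA). Hydrolysis was quantified by reverse-phase HPLC with 220 nm detection after acid quench.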

Test [1] deals with RF strain of HIV (CEM-SS cells). Nature of the test: Cell Culture Anti-HIV Activity (cell viability, formazan). The format is cell-based. As to conditions: Human immunodeficiency virus 1, CEM-SS, 144 h, CEM-SS cells, RF strain of HIV, multiplicity of infection 0.04, 6 days at 37° C., 450 nm; read-out: HIV (CEM Cells) IC50. Put shortly: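 Half-log compound dilutions added to CEM-SS cells (5000/well) carrying HIV RF (MOI 0.04), 6 days, 37° C. Cell protection measured as formazan from tetrazolium, A450. IC50: drug level restoring infected-cell formazan to 50% of the uninfected untreated control.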

What is called inhibition is how much of the control response was suppressed. As usually defined, the IC50 is the midpoint of a concentration-inhibition curve. Regarding `CC(C)(C)OC(=O)N[C@@H](Cc1ccccc1)[C@H](O)CNC[C@@H](O)[C@H](Cc1ccccc1)NC(=O)C1NC(=O)c2ccccc21` (stereo partly drawn) [Compound 223, [1S-[1R*,2S*(2S*,3R*)]]-[3-[[3-[[(2,3-Dihydro-3-oxo-1H-isoindol-1-yl)carbonyl]amino]-2-hydroxy-4-phenylbutyl]amino]-2-hydroxy-1-(phenylmethyl)propyl]carbamic acid, 1,1-dimethylethyl ester], the inhibition at 10 µM at HIV protease turned out to be 89%. Moreover, the IC50 in test [1] turned out to be 1400 nM.

For the molecule `COCCOc1ccc(C[C@H](NC(=O)OC(C)(C)C)[C@H](O)CNC[C@@H](O)[C@H](Cc2ccccc2)NC(=O)OC(C)(C)C)cc1` [Compound 224, [1S-[1R*,2S*(2S*,3R*)]]-[3-[[3-[[(1,1-Dimethylethoxy)carbonyl]amino]-2-hydroxy-4-[4-(2-methoxyethoxy)phenyl]butyl]amino]-2-hydroxy-1-(phenylmethyl)propyl]carbamic acid, 1,1-dimethylethyl ester], the inhibition at 10 µM at HIV protease stood at 98%. The IC50 in test [1] was determined as 40 nM.

For `CC(C)[C@H](NC(=O)[C@H](C)O)C(=O)N[C@@H](Cc1ccccc1)[C@H](O)CNC[C@@H](O)[C@H](Cc1ccccc1)NC(=O)OC(C)(C)C` [Compound 225, [1S-[[1R*,2S*(2S*,3R*)],N^2-(R*)]-N-[3-[[3-[[(1,1-Dimethylethoxy)carbonyl]amino]-2-hydroxy-4-phenylbutyl]amino]-2-hydroxy-1-(phenylmethyl)propyl]-N^2-(2-hydroxy-1-oxo-propyl)-L-valinamide], the inhibition at 10 µM at HIV protease was 99%. Besides, in test [1], the IC50 was 500 nM.

For the molecule `CC(C)(C)OC(=O)N[C@@H](Cc1ccccc1)[C@H](O)CNC[C@@H](O)[C@H](Cc1ccc(OCC(=O)N2CCOCC2)cc1)NC(=O)OC(C)(C)C` [Compound 226, [1S-[1R*,2S*(2S*,3R*)]]-[3-[[3-[[(1,1-Dimethylethoxy)carbonyl]amino]-2-hydroxy-4-(4-[2-(4-morpholinyl)-2-oxo-ethoxy]phenyl]butyl]amino]-2-hydroxy-1-(phenylmethyl)propyl]carbamic acid, 1,1-dimethylethyl ester], the inhibition at 10 µM on HIV protease came to 98%. The IC50 in test [1] is 50 nM.

For `CC(C)(C)OC(=O)N[C@@H](Cc1ccccc1)[C@H](O)CNC[C@@H](O)[C@H](Cc1ccccc1)NC(=O)OC(C)(C)[C@@H](O)CO` [Compound 227, [1S-(1R*,2S*),(R*)]-[Iminobis[2-hydroxy-1-(phenylmethyl)-3,1-propanediyl]]biscarbamic acid, 2,3-dihydroxy-1,1-dimethylpropyl 1,1-dimethylethyl ester], on HIV protease, the inhibition at 10 µM was 99%. In test [1], the IC50 came out at 900 nM.

In the case of `CC(C)(C)OC(=O)N[C@@H](Cc1ccccc1)[C@H](O)CNC[C@@H](O)[C@H](Cc1ccccc1)NC(=O)OC(C)(C)[C@H](O)CO` [Compound 228, [1S-(1R*,2S*),(S*)]-[Iminobis[2-hydroxy-1-(phenylmethyl)-3,1-propanediyl]]biscarbamic acid, 2,3-dihydroxy-1,1-dimethylpropyl 1,1-dimethylethyl ester], the inhibition at 10 µM at HIV protease turned out to be 98%. The IC50 in test [1] came out at 700 nM.

Take `CC(C)(C)OC(=O)N[C@@H](Cc1ccccc1)[C@H](O)CNC[C@@H](O)[C@H](Cc1ccccc1)NC(=O)OC(C)(C)CCCO` [Compound 229, [R-(R*,S*)]-[Iminobis[2-hydroxy-1-(phenylmethyl)-3,1-propanediyl)]biscarbamic acid, 4-hydroxy-1,1-dimethyl-butyl 1,1-dimethylethyl ester]: the inhibition at 10 µM on HIV protease worked out at 82%. The IC50 in test [1] was found to be 600 nM.

On to `CC(C)(C)OC(=O)N[C@@H](Cc1ccccc1)[C@H](O)CNC[C@@H](O)[C@H](Cc1ccccc1)NC(=O)OC[C@@H](O)CO` [Compound 230, [1S-(1R*,2S*),(R*)]-[Iminobis[2-hydroxy-1-(phenylmethyl)-3,1-propanediyl]]biscarbamic acid, 2,3-dihydroxypropyl 1,1-dimethylethyl ester], for which the inhibition at 10 µM on HIV protease is 92%. The IC50 in test [1] is 4900 nM.

`C[C@H](O)C(C)(C)OC(=O)N[C@@H](Cc1ccccc1)[C@H](O)CNC[C@@H](O)[C@H](Cc1ccccc1)NC(=O)OC(C)(C)C` [Compound 232, [1S-(1R*,2S*),(R*)]-[Iminobis[2-hydroxy-1-(phenylmethyl)-3,1-propanediyl]]biscarbamic acid, 1,1-dimethylethyl 2-hydroxy-1,1-dimethylpropyl ester]: the inhibition at 10 µM at HIV protease was determined as 99%. Also, the IC50 in test [1] is 50 nM.

Turning to `CC(C)(C)OC(=O)N[C@@H](Cc1ccccc1)[C@H](O)CNC[C@@H](O)[C@H](Cc1ccc(O)cc1)NC(=O)OC(C)(C)CO` [Compound 233, [1S-[1R*,2S*(2S*,3R*)]]-[3-[[3-[[(1,1-Dimethylethoxy)carbonyl]amino]-2-hydroxy-4-(4-hydroxyphenyl)butyl]amino]-2-hydroxy-1-(phenylmethyl)propyl]carbamic acid,2-hydroxy-1,1-dimethylethyl ester], the inhibition at 10 µM at HIV protease is 100%. The IC50 in test [1] stood at 1000 nM.

In the case of `CC(C)(C)OC(=O)N[C@@H](Cc1ccccc1)[C@H](O)CNC[C@@H](O)[C@H](Cc1ccccc1)NC(=O)[C@@H](NC=O)C(C)(C)C` [Compound 234, [1S-[1R*,2S*(2S*,3R*),(R*)]]-[3-[[3-[[3,3-Dimethyl-2-(formylamino)-1-oxobutyl]amino]-2-hydroxy-4-phenylbutyl]amino]-2-hydroxy-1-(phenylmethyl)propyl]carbamic acid, 1,1-dimethylethyl ester], the inhibition at 10 µM at HIV protease is 100%. In addition, in test [1], the IC50 was 80 nM.

As for `CC(C)(C)OC(=O)N[C@@H](C/C=C/c1ccc(O)cc1)[C@H](O)CNC[C@@H](O)[C@H](Cc1ccccc1)NC(=O)OC(C)(C)C` [Compound 235, [1S-[1R*,2S*[2S*,3R*(E)]]]-[3-[[3-[[(1,1-Dimethylethoxy)carbonyl]amino]-2-hydroxy-6-(4-hydroxyphenyl)-5-hexenyl]amino]-2-hydroxy-1-(phenylmethyl)propyl]carbamic acid, 1,1-dimethylethyl ester], on HIV protease, the inhibition at 10 µM was 97%. Moreover, in test [1], the IC50 stood at 350 nM.

`CC(C)(C)OC(=O)N[C@@H](Cc1ccccc1)[C@H](O)CNC[C@@H](O)[C@H](Cc1ccccc1)NC(=O)OC(C)(C)CNC=O` [Compound 236, [1S-(1R*,2S*)]-[Iminobis[2-hydroxy-1-(phenylmethyl)-3,1-propanediyl]]biscarbamic acid, 2-(formylamino)-1,1-dimethylethyl 1,1-dimethylethyl ester]: at HIV protease, the inhibition at 10 µM was found to be 89%. Moreover, the IC50 in test [1] stood at 700 nM.

Consider `CC(C)(C)OC(=O)N[C@@H](Cc1ccccc1)[C@H](O)CNC[C@@H](O)[C@H](Cc1ccccc1)NC(=O)C(OCCCc1nc2ccccc2[nH]1)C(C)(C)C` (stereo partly drawn) [Compound 238, [1S-[1R*,2S*(2S*,3R*)]]-[3-[[3-[[2-[3-(2-Benzimidazolyl)propoxy]-3,3-dimethyl-1-oxobutyl]amino]-2-hydroxy-4-phenylbutyl]amino]-2-hydroxy-1-(phenylmethyl)propyl]carbamic acid, 1,1-dimethylethyl ester], for which the inhibition at 10 µM at HIV protease is 64%. In addition, the IC50 in test [1] was determined as 2300 nM.
